Where a SMILES comes first, the peptide text is derived from it. The star is where a group is joined. Palmitoyl = CCCCCCCCCCCCCCCC(=O)*
Columns and labels:
[1] = biological target: T1, GLP-1 receptor (Rattus norvegicus, UniProt P32301); assay: Competitive binding of peptide to the GLP-1 receptor in RINm5F cell plasma membranes (125I GLP-1); details: read-out: GLP1 RIN IC50
T1 construct: endogenous in cells; host or cells: RINm5F cells
T1 sequence (P32301 22-463): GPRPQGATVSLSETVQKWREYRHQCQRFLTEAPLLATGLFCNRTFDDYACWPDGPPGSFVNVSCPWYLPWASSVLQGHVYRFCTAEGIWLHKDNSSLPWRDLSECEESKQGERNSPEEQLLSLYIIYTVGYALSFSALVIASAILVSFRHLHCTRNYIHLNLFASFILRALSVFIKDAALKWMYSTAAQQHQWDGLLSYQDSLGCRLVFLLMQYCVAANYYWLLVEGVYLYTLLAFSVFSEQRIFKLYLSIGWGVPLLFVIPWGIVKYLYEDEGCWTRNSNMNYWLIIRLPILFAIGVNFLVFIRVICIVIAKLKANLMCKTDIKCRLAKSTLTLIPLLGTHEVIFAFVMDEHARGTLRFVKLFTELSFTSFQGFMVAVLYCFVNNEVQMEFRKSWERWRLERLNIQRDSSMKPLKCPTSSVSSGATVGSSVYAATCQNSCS
Procedure: Flasks of RINm5F cells were washed with PBS, scraped in 20 mM Hepes-1 mM EDTA-250 mM sucrose buffer containing protease inhibitors (HES) and homogenized in a dounce homogenizer followed by repeated resuspension through a 23 gauge needle. Unbroken cells and nuclei were removed by centrifugation at 500×g for 5 minutes. The pellet was resuspended in HES buffer using a 23 gauge needle and the centrifugation was repeated. The supernatants from the two spins were combined and centrifuged at 40,000×g for 20 min. The resulting plasma membrane pellet was resuspended in HES buffer using a 23 gauge needle followed by a 25 gauge needle. Membranes were stored at −80° C. until use.
(§1) Competitive binding of some polypeptides of the invention to RINm5F cell plasma membranes was measured as follows. Ninety-six-well GF/C filtration plates (Millipore, Bedford, Mass.) were blocked with 0.3% PEI for at least one hour and washed twice with binding buffer consisting of 20 mM Tris, 2 mM EDTA, pH 7.5, 1 mg/ml BSA, and 1 mg/ml bacitracin. […] The plates were dried, scintillant was added to each well, and cpm per well determined using a Wallac Microbeta counter.

[2] = biological target: T2, glucagon receptor (Rattus norvegicus, UniProt P30082); assay: Competitive binding of peptide to the glucagon receptor in rat liver plasma membranes (125I glucagon)
T2 construct: glucagon receptor present in the plasma membranes isolated from rat liver; from tissue; host or cells: rat liver plasma membranes
T2 sequence (P30082 27-485): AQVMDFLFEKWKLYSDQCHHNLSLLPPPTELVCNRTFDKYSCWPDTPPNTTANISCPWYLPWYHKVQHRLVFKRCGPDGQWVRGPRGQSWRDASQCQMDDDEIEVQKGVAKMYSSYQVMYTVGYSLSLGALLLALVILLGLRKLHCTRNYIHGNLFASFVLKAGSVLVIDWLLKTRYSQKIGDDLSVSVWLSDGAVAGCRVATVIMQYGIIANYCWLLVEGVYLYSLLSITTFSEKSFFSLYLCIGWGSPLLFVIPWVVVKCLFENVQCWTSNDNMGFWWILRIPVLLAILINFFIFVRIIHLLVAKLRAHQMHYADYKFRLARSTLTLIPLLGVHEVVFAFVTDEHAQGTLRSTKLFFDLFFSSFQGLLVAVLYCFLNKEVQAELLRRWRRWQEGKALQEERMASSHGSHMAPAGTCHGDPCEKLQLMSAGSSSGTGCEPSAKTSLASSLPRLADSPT
Procedure: The wet weight of the livers was determined and the tissue minced in 5 volumes of ice cold TES buffer and a slurry prepared using a polytron. All buffers and spins were kept at 4° C. The slurry was further homogenized using three strokes of a handheld dounce homogenizer. The homogenate was passed through several layers of cheesecloth and spun at 25,000×g for 10 minutes. Pellets were homogenized in 22.1 ml TES buffer using 10 strokes of a handheld dounce homogenizer. Twenty-seven point nine milliliters of 2.4 M sucrose in TE was added and mixed well. The homogenate was distributed among several tubes, and each tube was overlaid with 7 ml of TES buffer. The tubes were spun at 120,000×g for 60 minutes. The plasma membranes were removed from the interface that formed during the spin, diluted in TES and concentrated using a 15 minute spin at 200,000×g. The resulting pellet was again homogenized in 9.8 ml TES buffer, combined with 10.3 ml 2.4M sucrose, overlaid with 7 ml TES, and centrifuged at 180,000×g for 30 min. […] The final pellet was resuspended in TES. Plasma membranes were stored at −80° C. until ready for use.
as §1, with “rat liver” for “RINm5F cell”, “0.1%” for “0.3%”

[3] = Intraperitoneal glucose tolerance testing (IPGTT) in rats or mice; assay type: in vivo; details: ipGTT in mice 3 hours post dosing with 100 μg/kg peptide
Procedure: Blood glucose levels during intraperitoneal glucose tolerance testing in rats or mice by some polypeptides of the invention were measured as follows. The in vivo activity of the polypeptides of the invention when administered subcutaneously was examined in rats or mice. Rats or mice fasted overnight were given a subcutaneous injection of control or peptide (100 μg/kg). Basal blood glucose was measured prior to administration of peptides or three or 17 hours after administration of derivatized peptides, and the rats or mice were given 2 g/kg of glucose intraperitoneally. Blood glucose was measured again after 15, 30 and 60 minutes in rats or 30 and 60 minutes in mice.

[4] = biological target: T1, GLP-1 receptor; assay: Peptide signaling through GLP-1 receptor, cAMP scintillation proximity assay in RINm5F cells; assay type: cell-based; details: for GLP1 Relative Potency: EC50 of native GLP-1 (7-36) divided by EC50 of polypeptide x 100, cAMP in RINm5F cells; for Emax: RIN-m5F, read-out: % GLP1 max
Procedure: The media was removed and the cells were washed twice with PBS. […] For assay of peptides conjugated with fatty acid, the BSA was omitted from the incubation buffer. The incubation buffer was removed, and the cells were lysed in the lysis reagent provided with the cAMP Scintillation Proximity Assay (SPA) direct screening assay system (Amersham Pharmacia Biotech Inc, Piscataway, N.J.). The amount of cAMP (in pmol) present in the lysates was determined following instructions provided with this kit.
The amount of cAMP (in pmol) produced at each concentration of peptide was plotted and analyzed by nonlinear regression using Prizm software to determine the EC50 for each peptide.

[5] = system: perfused rat islets; assay: Insulin secretion by perfused rat islets; assay type: cell-based; details: 50 nM peptide, 8 mM glucose
Procedure: Sprague Dawley rats (275-320 g) were used as the source of donor islets. Briefly, the pancreas was filled with 10 ml of cold reconstituted Liberase RI (Boehringer Manheim), harvested and incubated with additional 5 ml enzyme solution in water bath for 30 minutes. Tissue suspension was washed twice with cold 10% FBS/Hanks buffer (Gibco), resuspended in 8 ml 25% ficoll (Sigma) and then layered with 5 ml each of 23%, 20% and 11% ficoll. The islets in the 20% layer after centrifugation were removed, washed twice with cold 10% FBS/Hank buffer and resuspended in 10% FBS/RPMI 1640 media (Sigma).
Insulin secretion of perfused rat islets mediated by some peptides of the invention was measured as follows. The bi-phasic responses of insulin release stimulated by these polypeptides were tested by islet perfusion. Fifty islets were loaded in the perifusion chamber and perifused with HEPES-KRB containing 3 mM glucose at 37° C. After 60 min, islets were exposed to buffer containing 8 mM glucose with or without peptide (50 nM) and perifused for another 30 min. Fractions of perifusate were collected at 1 or 5 minute intervals for insulin determination. Insulin was measured using an ELISA kit (Alpco Diagnostics, Windham, N.H.).

Row | Structure (SMILES) | IC50 [1] [nM] | IC50 [2] [nM] | GLP1 Relative Potency [4] [%] | Emax [4] [%] | In vivo Decrease IpGTT AUC [3] [%] | Increase of insulin secretion from perfused islets [5]
1 | CC[C@H](C)[C@H](NC(=O)[C@H](Cc1ccccc1)NC(=O)[C@H](CCC(=O)O)NC(=O)[C@H](CCCCN)NC(=O)[C@H](C)NC(=O)[C@H](C)NC(=O)[C@H](CCC(N)=O)NC(=O)CNC(=O)[C@H](CCC(=O)O)NC(=O)[C@H](CC(C)C)NC(=O)[C@H](Cc1ccc(O)cc1)NC(=O)[C@H](CO)NC(=O)[C@H](CO)NC(=O)[C@@H](NC(=O)[C@H](CC(=O)O)NC(=O)[C@H](CO)NC(=O)[C@@H](NC(=O)[C@H](Cc1ccccc1)NC(=O)[C@@H](NC(=O)CNC(=O)[C@H](CCC(=O)O)NC(=O)[C@H](C)NC(=O)[C@@H](N)Cc1c[nH]cn1)[C@@H](C)O)[C@@H](C)O)C(C)C)C(=O)N[C@@H](C)C(=O)N[C@@H](Cc1c[nH]c2ccccc12)C(=O)N[C@@H](CC(C)C)C(=O)N[C@H](C(=O)N[C@@H](CCCCN)C(=O)NCC(=O)N[C@@H](CCCNC(=N)N)C(N)=O)C(C)C [GLP-1, reference compound] |  |  |  |  |  | approximately 2 fold
2 | CCCCCCCCCCCCCCCC(=O)NCCCC[C@H](NC(=O)[C@H](CCCNC(=N)N)NC(=O)CNC(=O)[C@H](CCCCN)NC(=O)[C@@H](NC(=O)[C@H](CC(C)C)NC(=O)[C@H](Cc1c[nH]c2ccccc12)NC(=O)[C@H](C)NC(=O)[C@@H](NC(=O)[C@H](Cc1ccccc1)NC(=O)[C@H](CCC(=O)O)NC(=O)[C@H](CCCCN)NC(=O)[C@H](C)NC(=O)[C@H](CCCNC(=N)N)NC(=O)[C@H](CCCNC(=N)N)NC(=O)[C@H](C)NC(=O)[C@H](CC(=O)O)NC(=O)[C@H](CC(C)C)NC(=O)[C@H](Cc1ccc(O)cc1)NC(=O)[C@H](CCCCN)NC(=O)[C@H](C)NC(=O)[C@H](Cc1ccc(O)cc1)NC(=O)[C@H](CC(=O)O)NC(=O)[C@H](CO)NC(=O)[C@@H](NC(=O)[C@H](Cc1ccccc1)NC(=O)[C@@H](NC(=O)CNC(=O)[C@H](CCC(N)=O)NC(=O)[C@H](CO)NC(=O)[C@@H](N)Cc1c[nH]cn1)[C@@H](C)O)[C@@H](C)O)[C@@H](C)CC)C(C)C)C(=O)O [G88] (H-HSQGTFTSDYAKYLDARRAKEFIAWLVKGRK(Palmitoyl)-OH; N-terminus and C-terminus assumed) | 109 | 350 | 2.3 | 118 | 16 | 

Further compounds by falling IC50 [1], results first:

Row | IC50 [1] [nM] | IC50 [2] [nM] | GLP1 Relative Potency [4] [%] | Emax [4] [%] | Structure (SMILES) | In vivo Decrease IpGTT AUC [3] [%] | Increase of insulin secretion from perfused islets [5]
3 | 98.6 | 620 | 6.1 | 100 | CCCCCCCCCCCCCCCC(=O)NCCCC[C@H](NC(=O)[C@H](C)NC(=O)[C@H](CCCNC(=N)N)NC(=O)[C@H](CCCNC(=N)N)NC(=O)[C@H](C)NC(=O)[C@H](CC(=O)O)NC(=O)[C@H](CC(C)C)NC(=O)[C@H](Cc1ccc(O)cc1)NC(=O)[C@H](CCCCN)NC(=O)[C@H](C)NC(=O)[C@H](Cc1ccc(O)cc1)NC(=O)[C@H](CC(=O)O)NC(=O)[C@H](CO)NC(=O)[C@@H](NC(=O)[C@H](Cc1ccccc1)NC(=O)[C@@H](NC(=O)CNC(=O)[C@H](CCC(N)=O)NC(=O)[C@H](CO)NC(=O)[C@@H](N)Cc1c[nH]cn1)[C@@H](C)O)[C@@H](C)O)C(=O)N[C@@H](CCC(=O)O)C(=O)N[C@@H](Cc1ccccc1)C(=O)N[C@H](C(=O)N[C@@H](C)C(=O)N[C@@H](Cc1c[nH]c2ccccc12)C(=O)N[C@@H](CC(C)C)C(=O)N[C@H](C(=O)N[C@@H](CCCCN)C(=O)NCC(=O)N[C@@H](CCCNC(=N)N)C(N)=O)C(C)C)[C@@H](C)CC [G87] (H-HSQGTFTSDYAKYLDARRAK(Palmitoyl)EFIAWLVKGR-NH2; N-terminus assumed) | 13 | 
4 | 25.4 | 726 | 0.8 | 83.5 | CCCCCCCCCCCCCCCC(=O)NCCCC[C@H](NC(=O)[C@@H](NC(=O)[C@H](Cc1ccccc1)NC(=O)[C@H](CCC(=O)O)NC(=O)[C@H](CCCNC(=N)N)NC(=O)[C@H](C)NC(=O)[C@H](CCCNC(=N)N)NC(=O)[C@H](CCCNC(=N)N)NC(=O)[C@H](C)NC(=O)[C@H](CC(=O)O)NC(=O)[C@H](CC(C)C)NC(=O)[C@H](Cc1ccc(O)cc1)NC(=O)[C@H](CCCNC(=N)N)NC(=O)[C@H](C)NC(=O)[C@H](Cc1ccc(O)cc1)NC(=O)[C@H](CC(=O)O)NC(=O)[C@H](CO)NC(=O)[C@@H](NC(=O)[C@H](Cc1ccccc1)NC(=O)[C@@H](NC(=O)CNC(=O)[C@H](CCC(N)=O)NC(=O)[C@H](CO)NC(=O)[C@@H](N)Cc1c[nH]cn1)[C@@H](C)O)[C@@H](C)O)[C@@H](C)CC)C(=O)N[C@@H](Cc1c[nH]c2ccccc12)C(=O)N[C@@H](CC(C)C)C(=O)N[C@H](C(=O)N[C@@H](CCCNC(=N)N)C(=O)NCC(=O)N[C@@H](CCCNC(=N)N)C(=O)NCC(=O)O)C(C)C [G90] | 13 | 
5 | 12.6 | 220 | 1.4 | 104 | CCCCCCCCCCCCCCCC(=O)NCCCC[C@H](NC(=O)CNC(=O)[C@H](CCCNC(=N)N)NC(=O)CNC(=O)[C@H](CCCNC(=N)N)NC(=O)[C@@H](NC(=O)[C@H](CC(C)C)NC(=O)[C@H](Cc1c[nH]c2ccccc12)NC(=O)[C@H](CCCCN)NC(=O)[C@@H](NC(=O)[C@H](Cc1ccccc1)NC(=O)[C@H](CCC(=O)O)NC(=O)[C@H](CCCNC(=N)N)NC(=O)[C@H](C)NC(=O)[C@H](CCCNC(=N)N)NC(=O)[C@H](CCCNC(=N)N)NC(=O)[C@H](C)NC(=O)[C@H](CC(=O)O)NC(=O)[C@H](CC(C)C)NC(=O)[C@H](Cc1ccc(O)cc1)NC(=O)[C@H](CCCNC(=N)N)NC(=O)[C@H](C)NC(=O)[C@H](Cc1ccc(O)cc1)NC(=O)[C@H](CC(=O)O)NC(=O)[C@H](CO)NC(=O)[C@@H](NC(=O)[C@H](Cc1ccccc1)NC(=O)[C@@H](NC(=O)CNC(=O)[C@H](CCC(N)=O)NC(=O)[C@H](CO)NC(=O)[C@@H](N)Cc1c[nH]cn1)[C@@H](C)O)[C@@H](C)O)[C@@H](C)CC)C(C)C)C(=O)O [G182] (H-HSQGTFTSDYARYLDARRAREFIKWLVRGRGK(Palmitoyl)-OH; N-terminus and C-terminus assumed) | 14 | 

From patent US7488716B2 (priority 2001, dated 2009)
